Measurements from patent publication US20230017266A1, “Cyclooxygenase-2 Inhibition for the Treatment of SAA-high Asthma” (THE USA, AS REPRESENTED BY THE SECRETARY, DEPT. OF HEALTH …, priority 2019, published 2023).

Tested on: NF-κB p65
Test: Phosphorylation of NF-κB p65 serine 529 in monocytes stimulated with HDL+SAA1 (flow cytometry)
Type: cell-based, human
Conditions: A438079 10 μM for 2 h, then HDL+SAA1 15 min; CD45+/CD14+/CD16− monocytes
Method: Phosphorylation of NF-κB p65. PBMCs isolated using Lymphoprep™ were resuspended in X-VIVO™ 15 serum-free hematopoietic cell medium (Lonza, Walkersville, Md.) and treated with the P2X7R antagonist, A438079 (10 ∝M), for 2 h prior to stimulation with HDL+SAA1 for 15 min^53. Subsequent cell processing was performed at 4° C. or on ice. Cells were washed with cold PBS, centrifuged at 300×g for 5 min, and reacted in a volume of 100 ∝l PBS for 15 min with the following antibodies; APC-Cy™7 mouse anti-human CD45 clone 2D1 (catalog #557833), FITC mouse anti-human CD14 clone M5E2 (catalog #555397), APC mouse anti-human CD16 clone B73.1 (catalog #561304), all form BD Biosciences (San Jose, Calif.) and cell viability dye (L34959, ThermoFisher Scientific, Frederick, Md.). […] Cells were washed with Phosflow Perm Buffer III and PBS, resuspended in PBS, and analyzed using a Fortessa analyzer equipped with 355, 407, 488, 532 and 640 nm LASER lines using FACS DIVA 8.0 software (BD Biosciences, San Jose, Calif.). […] Mean fluorescence intensity (MFI) was calculated and overlay histogram plots were generated to quantify phosphorylation of NF-κB p65 serine 529 among various treatment conditions.

Clc1cccc(-c2nnnn2Cc2cccnc2)c1Cl [A438079]
HDL+SAA1-mediated phosphorylation of p65 NF-κB: attenuated
